The results in this text go back to patent publication US20230295152A1 (SENDA BIOSCIENCES, INC., priority 2019, published 2023).

The structures appear in SMILES notation. pIC50: −log10 of the molar value. Values after ≈ are worked out from the molar mass of the structure shown. Like-named read-outs stand apart in the source and are kept apart here. Where only a bound is given, the exact number is not on record here.

The target of one data set is T1, AHR (Homo sapiens, UniProt P35869).
T1 construct: other cell line with a DRE-luciferase reporter stably transfected; endogenous in cells; host or cells: HepG2 AhR-Lucia reporter cells
T1 sequence (P35869 11-848): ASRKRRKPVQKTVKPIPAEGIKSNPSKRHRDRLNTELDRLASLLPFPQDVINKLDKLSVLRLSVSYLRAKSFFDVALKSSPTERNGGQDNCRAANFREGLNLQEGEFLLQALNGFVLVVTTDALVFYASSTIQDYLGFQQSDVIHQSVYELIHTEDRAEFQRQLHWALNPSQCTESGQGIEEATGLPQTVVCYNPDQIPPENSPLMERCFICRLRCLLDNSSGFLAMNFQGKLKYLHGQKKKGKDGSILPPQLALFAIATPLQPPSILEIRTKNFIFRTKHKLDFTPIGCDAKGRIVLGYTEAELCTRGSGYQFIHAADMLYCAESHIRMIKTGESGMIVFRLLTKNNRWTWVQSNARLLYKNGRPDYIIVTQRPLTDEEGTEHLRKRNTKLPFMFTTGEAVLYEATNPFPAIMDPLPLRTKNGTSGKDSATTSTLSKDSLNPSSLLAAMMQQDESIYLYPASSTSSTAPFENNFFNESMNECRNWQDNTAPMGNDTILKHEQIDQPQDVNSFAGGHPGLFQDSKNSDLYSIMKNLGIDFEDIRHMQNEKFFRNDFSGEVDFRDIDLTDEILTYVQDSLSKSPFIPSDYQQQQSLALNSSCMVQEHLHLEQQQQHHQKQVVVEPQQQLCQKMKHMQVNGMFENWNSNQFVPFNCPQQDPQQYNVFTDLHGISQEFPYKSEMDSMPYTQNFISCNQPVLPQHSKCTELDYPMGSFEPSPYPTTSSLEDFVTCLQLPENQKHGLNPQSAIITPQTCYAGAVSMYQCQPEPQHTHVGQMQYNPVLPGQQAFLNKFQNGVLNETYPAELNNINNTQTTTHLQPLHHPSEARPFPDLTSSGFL
The data set is described as follows: DRE-Luciferase Reporter Assay, HepG2 AhR-Lucia reporter cells. The format is cell-based. The note with it: with AHR activating ligand at EC50, read-out: HepG2-Luc IC50. A digest of the protocol:
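Antagonism read as inhibition of agonist-driven secreted luciferase in stably DRE-reporter-transfected cells such as HepG2 AhR-Lucia. Agonist ligand at EC50 concentration added 1 hr post-plating alongside antagonist (log series, top 100 uM); supernatant read at 24 or 48 h, IC50 derived against agonist-only maximum.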
In general terms: In a reporter assay the amount or activity of a reporter protein is the signal.

The nature of data set [1]: Solubility Determination Assay in PBS pH 1.6 and pH 7.4. Format: physicochemical. To be noted: PBS buffer, aqueous buffer, kinetic from dmso stock. A digest of the protocol:
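Compounds from 10 mM DMSO stock diluted into PBS pH 1.6 or pH 7.4 (15 μL into 485 μL), stirred 2 hours, then filtered. Filtrate quantified by LC-MS/MS against a standard of known concentration with internal standard; single determination.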

The mark [2] stands for this setting: PBS pH 1.6, 25° C., read-out: Aq. Solubility at pH = 1.6.
[3] abbreviates: PBS pH 7.4, 25° C., read-out: Aq. Solubility at pH = 7.4.

As for `O=c1c2cc(-c3ccc(C(F)(F)F)nc3)nc(-c3cccnc3)c2ncn1C[C@H](O)C(F)(F)F` [Compound 57], the negative-log IC50 (pIC50) (in general, the IC50 on a negative log10 scale, so that one unit is a factor of ten) at AHR was above 7.00. In addition, the solubility at 2 h in data set [1] (setting [2]) and in data set [1] (setting [3]) was at least 1 µM each time.

For the compound `C[C@@H](CO)n1cnc2c(-c3cnsc3)nc(-c3ccc(Cl)cc3)cc2c1=O` [Compound 58], the pIC50 on AHR was above 7.00. In addition, the solubility at 2 h in data set [1] (setting [2]) and in data set [1] (setting [3]) was below 0.1 µM each time.

With `Cn1cc(-c2nc(-c3ccc(C(F)(F)F)nc3)cc3c(=O)n(CC(C)(C)O)cnc23)cn1` [Compound 60], the pIC50 at AHR is above 7.00. Also, the solubility at 2 h in data set [1] (setting [2]) and in data set [1] (setting [3]) was at least 1 µM each time.

Consider `C[C@@H](CO)n1cnc2c(-c3cccnc3)nc(-c3cnc(C4CC4)s3)cc2c1=O` [Compound 66], for which the pIC50 at AHR was above 7.00. In addition, the solubility at 2 h in data set [1] (setting [2]) and in data set [1] (setting [3]) was at least 1 µM throughout.

Turning to `C[C@@H](CO)n1cnc2c(-c3cnn(C)c3)nc(-c3ccc(C(F)(F)F)nc3)cc2c1=O` [Compound 68], on AHR, the pIC50 is above 7.00. The solubility at 2 h in data set [1] (setting [2]) and in data set [1] (setting [3]) was at least 1 µM in each case.

Consider `C[C@@H](CO)n1cnc2c(-c3cccnc3)nc(-c3ccc(C4CC4)nc3)cc2c1=O` [Compound 74], for which the pIC50 at AHR is above 7.00. Besides, the solubility at 2 h in data set [1] (setting [2]) and in data set [1] (setting [3]) was at least 1 µM each time.

On to `O=c1c2cc(-c3ccc(C(F)(F)F)nc3)nc(-c3cccnc3)c2ncn1[C@@H]1COC[C@H]1O` [Compound 79], for which, on AHR, the pIC50 is above 7.00. Besides, the solubility at 2 h in data set [1] (setting [2]) and in data set [1] (setting [3]) was at least 1 µM in each case.

As to `CC(C)(O)Cn1cnc2c(-c3cccnc3)nc(-c3ccc(C4CC4)nc3)cc2c1=O` [Compound 81], on AHR, the pIC50 is above 7.00. In addition, the solubility at 2 h in data set [1] (setting [2]) and in data set [1] (setting [3]) was at least 1 µM throughout.

Take `Cn1cc(-c2nc(-c3ccc(C4CC4)nc3)cc3c(=O)n(CC(C)(C)O)cnc23)cn1` [Compound 82]: the pIC50 on AHR is above 7.00. The solubility at 2 h in data set [1] (setting [2]) and in data set [1] (setting [3]) was at least 1 µM each time.

`C[C@@H](CO)n1cnc2c(-c3cnn(C)c3)nc(-c3ccc(C4CC4)nc3)cc2c1=O` [Compound 83]: at AHR, the pIC50 was above 7.00. Besides, the solubility at 2 h in data set [1] (setting [2]) and in data set [1] (setting [3]) was at least 1 µM in each case.

As to `C[C@@H](CO)n1cnc2c(-c3cccnc3)nc(-c3cnc(C(F)(F)F)s3)cc2c1=O` [Compound 85], the pIC50 on AHR is above 7.00. The solubility at 2 h in data set [1] (setting [2]) and in data set [1] (setting [3]) was at least 1 µM throughout.

`C[C@@H](CO)n1cnc2c(-c3cccnc3)nc(-c3cnc(C(F)(F)F)nc3)cc2c1=O` [Compound 86]: the pIC50 at AHR was above 7.00. Also, the solubility at 2 h in data set [1] (setting [2]) and in data set [1] (setting [3]) was at least 1 µM each time.

On to `Cn1cc(-c2nc(-c3ccc(C(F)(F)F)nc3)cc3c(=O)n([C@H]4COC[C@H]4O)cnc23)cn1` [Compound 88], for which the pIC50 at AHR was above 7.00. Further, the values for the solubility at 2 h in data set [1] (setting [2]) and in data set [1] (setting [3]) were at least 1 µM and 0.1 to 1 µM (≈ 0.0458 to 0.458 µg/mL), respectively.

For the compound `Cc1ncc(-c2cc3c(=O)n([C@@H](C)CO)cnc3c(-c3cccnc3)n2)s1` [Compound 89], the pIC50 at AHR is above 7.00. The solubility at 2 h in data set [1] (setting [2]) and in data set [1] (setting [3]) was at least 1 µM in each case.

`Cn1cc(-c2nc(-c3ccc(Cl)cc3)cc3c(=O)n([C@H]4COC[C@H]4O)cnc23)cn1` [Compound 92]: the pIC50 on AHR was above 7.00. Further, the solubility (in general, how much of the substance goes into solution per volume) at 2 h in data set [1] (setting [2]) is 0.1 to 1 µM (≈ 0.0424 to 0.424 µg/mL); in data set [1] (setting [3]), below 0.1 µM.

In the case of `C[C@@H](CO)n1cnc2c(-c3cnn(C)c3)nc(-c3cnc(C(F)(F)F)nc3)cc2c1=O` [Compound 95], the pIC50 at AHR was above 7.00. For the same compound, the solubility at 2 h in data set [1] (setting [2]) and in data set [1] (setting [3]) was at least 1 µM in each case.

As to `Cn1cc(-c2nc(-c3cnc(C(F)(F)F)nc3)cc3c(=O)n(CC(C)(C)O)cnc23)cn1` [Compound 99], at AHR, the pIC50 was above 7.00. For the same compound, the figures for the solubility at 2 h in data set [1] (setting [2]) and in data set [1] (setting [3]) were at least 1 µM and 0.1 to 1 µM (≈ 0.0445 to 0.445 µg/mL), respectively.

As to `CC(C)(O)Cn1cnc2c(-c3cnsc3)nc(-c3ccc(C(F)(F)F)cn3)cc2c1=O` [Compound 101, 3-(2-hydroxy-2-methylpropyl)-8-(isothiazol-4-yl)-6-(5-(trifluoromethyl)pyridin-2-yl)pyrido[3,4-d]pyrimidin-4(3H)-one], the pIC50 at AHR was above 7.00. Besides, the solubility at 2 h is 0.1 to 1 µM (≈ 0.0447 to 0.447 µg/mL) in data set [1] (setting [2]) and below 0.1 µM in data set [1] (setting [3]).

On to `C[C@@H](CO)n1cnc2c(-c3cnsc3)nc(-c3ccc(C(F)(F)F)cn3)cc2c1=O` [Compound 102, (S)-3-(1-hydroxypropan-2-y1)-8-(isothiazol-4-yl)-6-(5-(trifluoromethyl)pyridin-2-yl)pyrido[3,4-d]pyrimidin-4(3H)-one], for which the pIC50 on AHR was above 7.00. The solubility at 2 h in data set [1] (setting [2]) and in data set [1] (setting [3]) was 0.1 to 1 µM (≈ 0.0433 to 0.433 µg/mL) throughout.

For `Cn1cc(-c2nc(-c3ccc(C(F)(F)F)cn3)cc3c(=O)n(CC(C)(C)O)cnc23)cn1` [Compound 103, 3-(2-hydroxy-2-methylpropyl)-8-(1-methyl-1H-pyrazol-4-yl)-6-(5-(trifluoromethyl)pyridin-2-yl)pyrido[3,4-d]pyrimidin-4(3H)-one], the pIC50 on AHR was above 7.00. The solubility at 2 h was 0.1 to 1 µM (≈ 0.0444 to 0.444 µg/mL) in data set [1] (setting [2]) and below 0.1 µM in data set [1] (setting [3]).

Regarding `O=c1c2cc(-c3ccc(C(F)(F)F)cn3)nc(-c3cccnc3)c2ncn1C[C@H](O)C(F)(F)F` [Compound 104, (S)-8-(pyridin-3-yl)-3-(3,3,3-trifluoro-2-hydroxypropyl)-6-(5-(trifluoromethyl)pyridin-2-yl)pyrido[3,4-d]pyrimidin-4(3H)-one], at AHR, the pIC50 is above 7.00. Moreover, the solubility at 2 h in data set [1] (setting [2]) and in data set [1] (setting [3]) was at least 1 µM throughout.

Consider `CC(C)(O)Cn1cnc2c(-c3cccnc3)nc(-c3ccc(C(F)(F)F)cn3)cc2c1=O` [Compound 105], for which the pIC50 at AHR was above 7.00. Besides, the solubility at 2 h in data set [1] (setting [2]) and in data set [1] (setting [3]) was at least 1 µM in each case.

`C[C@H](O)Cn1cnc2c(-c3cnn(C)c3)nc(-c3ccc(C(F)(F)F)nc3)cc2c1=O` [Compound 109, (S)-3-(2-hydroxypropyl)-8-(1-methyl-1H-pyrazol-4-yl)-6-(6-(trifluoromethyl)pyridin-3-yl)pyrido[3,4-d]pyrimidin-4(3H)-one]: at AHR, the pIC50 is above 7.00. Besides, the solubility at 2 h in data set [1] (setting [2]) and in data set [1] (setting [3]) was 0.1 to 1 µM (≈ 0.043 to 0.43 µg/mL) each time.

For `Cn1cc(-c2nc(-c3ccc(C(F)(F)F)nc3)cc3c(=O)n(C[C@@H](O)C(F)(F)F)cnc23)cn1` [Compound 110, (R)-8-(1-methyl-1H-pyrazol-4-yl)-3-(3,3,3-trifluoro-2-hydroxypropyl)-6-(6-(trifluoromethyl)pyridin-3-yl)pyrido[3,4-d]pyrimidin-4(3H)-one], the pIC50 at AHR is above 7.00. For the same compound, the solubility at 2 h in data set [1] (setting [2]) and in data set [1] (setting [3]) was below 0.1 µM each time.

Regarding `Cn1cc(-c2nc(-c3ccc(C(F)(F)F)nc3)cc3c(=O)n(C[C@H](O)C(F)(F)F)cnc23)cn1` [Compound 111, (S)-8-(1-methyl-1H-pyrazol-4-yl)-3-(3,3,3-trifluoro-2-hydroxypropyl)-6-(6-(trifluoromethyl)pyridin-3-y1)pyrido[3,4-d]pyrimidin-4(3H)-one], the pIC50 on AHR is above 7.00. The results for the solubility at 2 h in data set [1] (setting [2]) and in data set [1] (setting [3]) were 0.1 to 1 µM (≈ 0.0484 to 0.484 µg/mL) and below 0.1 µM, respectively.

Consider `C[C@@H](O)Cn1cnc2c(-c3cccnc3)nc(-c3ccc(C(F)(F)F)nc3)cc2c1=O` [Compound 112, (R)-3-(2-hydroxypropyl)-8-(pyridin-3-yl)-6-(6-(trifluoromethyl)pyridin-3-yl)pyrido[3,4-d]pyrimidin-4(3H)-one], for which the negative-log IC50 (pIC50) at AHR is above 7.00. The solubility at 2 h in data set [1] (setting [2]) and in data set [1] (setting [3]) was at least 1 µM each time.

Take `Cn1cc(-c2nc(-c3ccc(C(F)(F)F)nc3)cc3c(=O)n([C@H]4COC[C@@H]4O)cnc23)cn1` [Compound 114, 3-((3S,4R)-4-hydroxytetrahydrofuran-3-yl)-8-(1-methyl-1H-pyrazol-4-yl)-6-(6-(trifluoromethyl)pyridin-3-yl)pyrido[3,4-d]pyrimidin-4(3H)-one]: on AHR, the pIC50 is above 7.00. For the same compound, the solubility at 2 h in data set [1] (setting [2]) and in data set [1] (setting [3]) was 0.1 to 1 µM (≈ 0.0458 to 0.458 µg/mL) in each case.
